Measured values from US11953435B2, “Zinc-responsive fluorophores” (Northwestern University, priority 2019, dated 2024).
“Also recorded” adds a separate entry of the source.

Molecular target: BSA (Bos taurus, UniProt P02769)
Experiment: Interaction of ZincBY probes with proteins (BSA): emission, absorbance, polarization
Type: binding
Settings: for interaction with BSA (in words) / fluorescence turn-on in response to zinc in the presence of BSA / emission maximum in the presence of BSA: 10 mg/mL BSA; for fluorescence turn-on in response to zinc in the presence of BSA: holo vs apo; for polarization: apo and holo forms
Experimental: Aqueous solutions were prepared by using de-ionized water with resistivity […], obtained using a Milli-Q water purification system. In order to properly compare the photophysical properties of ZincBY-2, ZincBY-3, and ZincBY-4 to ZincBY-1, the photophysical properties of ZincBY-1 we remeasured. Tested values differed from the previously published values (Ref. B2; incorporated by reference in its entirety). It was determined that copper was present in the aqueous buffer used for in vitro analysis of the previous samples. The corrected values are used herein, utilizing buffers that are copper-free. Stock solutions of ZincBY-1, ZincBY-2, ZincBY-3, and ZincBY-4 were prepared at concentrations of 5 mM and stored at −20° C. in aliquots that were used immediately after thawing for each experiment. Unless otherwise stated, all spectroscopic methods were conducted in aqueous buffer containing 50 mM HEPES (pH 7.2) and 0.1 M KNO3. UV-visible spectra were acquired on a PerkinElmer Lambda 650 UV/Vis spectrophotometer using quartz cuvettes from Starna (1 cm path length, 10 cm path length used in extinction coefficient and quantum yield determination). Fluorescence spectra were acquired using a PerkinElmer LS 55 fluorescence spectrophotometer. For measurements containing zinc, 99.0% ZnNO3 hexahydrate (final concentration 5 μM) was used. For experiments analyzing apo probes, N,N,N′,N′-Tetrakis(2-pyridylmethyl)ethylenediamine (TPEN) (final concentration 5 μM) was added to solution. Quantum Yield and Extinction Coefficient Determination. Quantum yields for apo and holo ZincBY-1, ZincBY-2, ZincBY-3, and ZincBY-4 were determined by plotting absorbance vs. fluorescence intensity of solutions containing ZincBY-1, ZincBY-2, ZincBY-3, or ZincBY-4 at probe concentrations ranging from 50-250 nM. Serial dilution was used to make solutions at different concentrations. Fluorescein dissolved in 0.1 N NaOH was used as the quantum yield standard, using a literature-determined quantum yield of 0.95.^3 For all fluorophore solutions, fluorescence excitation was set at 490 nm and fluorescence emission was integrated from 510 nm to 650 nm. Zinc Dissociation Constant. Fluorescence spectra were recorded using zinc probes (ZincBY-1, ZincBY-2, ZincBY-3, or ZincBY-4; 200 nM) and ZnSO4 (various concentrations). The solutions were equilibrated in the dark for 1 h prior to measurement. The concentration of ZnSO4 was varied from 1 μM to 9 mM in buffer solution (50 mM HEPES and 0.1 M KNO3, and pH 7.2) containing 10 mM EGTA. Free Zn^2+ was calculated according to a previously reported method (Ref. B4; incorporated by reference in its entirety). Data was fit to the following one-site binding equation: F=(FminKd+Fmax[Zn^2+])/(Kd+[Zn^2+]) pH Response. The fluorescence spectra of zinc probes (ZincBY-2, ZincBY-3, or ZincBY-4; 200 nM) wasere measured at various pH values (4.5-11). The following buffers were used at 50 mM concentration with 0.1 M KNO3: NaOAc/AcOH (pH 4.0-4.5), MES (pH 5.0-6.5), HEPES (pH 7.0-8.0), CHES (pH 8.5-9.5), CAPS (pH 10.0-11.0). Metal Ion Response. The fluorescence spectra of zinc probes (ZincBY-2, ZincBY-3, or ZincBY-4; 200 nM) were measured in the presence an excess of metal ion including 1 mM KNO3, 1 mM NaNO3, 1 mM CaSO4, 1 mM MgSO4, 15 μM MnSO4, 15 μM (NH4)2Fe(SO4)2, 15 μM NH4Fe(SO4)2, 15 μM CoSO4, 15 μM NiSO4, 15 μM CuSO4, 15 μM [Cu(CH3CN)4]PF6, 15 μM CdSO4, 15 μM Hg(NO3)2, 15 μM Pb(NO3)2, or 15 μM ZnSO4. The fluorescence spectra were compared to that of ZincBY-2 (200 nM), ZincBY-3 (200 nM), or ZincBY-4 (200 nM) in the presence of 10 μM TPEN. Determination of octanol-water partition coefficients (log P). A log P value for each probe was determined by agitating nanomolar solutions of each probe in a 1:1 mixture of HEPES buffer and 1-octanol. Solutions were allowed to settle for 1 h and then the fluorescence intensity of each phase was measured. Standard curves of the fluorescence of known concentrations of probes in both solutions were used to determine concentrations. […]

Chain of BSA (P02769 25-607): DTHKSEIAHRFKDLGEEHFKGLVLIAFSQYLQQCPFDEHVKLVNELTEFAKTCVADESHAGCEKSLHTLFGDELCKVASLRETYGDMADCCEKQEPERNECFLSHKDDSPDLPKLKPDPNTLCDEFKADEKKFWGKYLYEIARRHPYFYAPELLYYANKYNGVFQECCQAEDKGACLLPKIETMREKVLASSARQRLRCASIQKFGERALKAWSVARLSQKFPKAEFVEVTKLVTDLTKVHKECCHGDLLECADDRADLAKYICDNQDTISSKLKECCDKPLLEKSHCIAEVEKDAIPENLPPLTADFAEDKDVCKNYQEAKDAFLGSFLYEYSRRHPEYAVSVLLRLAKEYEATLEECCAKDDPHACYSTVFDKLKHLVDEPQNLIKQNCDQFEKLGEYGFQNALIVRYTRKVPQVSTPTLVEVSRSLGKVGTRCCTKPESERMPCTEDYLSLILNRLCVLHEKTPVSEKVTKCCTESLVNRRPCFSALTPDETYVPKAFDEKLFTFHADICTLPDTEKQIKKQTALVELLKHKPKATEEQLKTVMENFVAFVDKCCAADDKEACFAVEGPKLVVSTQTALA

| Structure (SMILES) | interaction with BSA (in words) | fluorescence turn-on in response to zinc in the presence of BSA | polarization (presence of excess BSA) | polarization (without BSA) | emission maximum in the presence of BSA (apo) [nm] | emission maximum in the presence of BSA (holo, excited at 480 nm) [nm] |
| --- | --- | --- | --- | --- | --- | --- |
| COc1ccc2n1[B-](F)(F)[N+]1=C(N(CCN(Cc3ccccn3)Cc3ccccn3)Cc3ccccn3)C=CC1=C2c1c(C)cc(C)cc1C [ZincBY-1, reference compound] | The same interactions can be found | the fluorescence of apo-ZincBY-1 matches that of holo-ZincBY-1; also recorded: no fluorescence turn-on was observed |  |  |  |  |
| Cc1cc(C)c(C2=C3C=CC(OCCN=[N+]=[N-])=[N+]3[B-](F)(F)n3c2ccc3N(CCN(Cc2ccccn2)Cc2ccccn2)Cc2ccccn2)c(C)c1 [ZincBY-2, N1-(7-(2-azidoethoxy)-5,5-difluoro-10-mesityl-5H-4λ4,5λ4-dipyrrolo[1,2-c:2′,1′-f][1,3,2]diazaborinin-3-yl)-N1,N2,N2-tris(pyridin-2-ylmethyl)ethane-1,2-diamine] | The same interactions can be found |  |  |  |  |  |
| Cc1cc(C)c(C2=C3C=CC(OCCN)=[N+]3[B-](F)(F)n3c2ccc3N(CCN(Cc2ccccn2)Cc2ccccn2)Cc2ccccn2)c(C)c1 [ZincBY-3, N1-(7-(2-aminoethoxy)-5,5-difluoro-10-mesityl-5H-4λ4,5λ4-dipyrrolo[1,2-c:2′,1′-f][1,3,2]diazaborinin-3-yl)-N1,N2,N2-tris(pyridin-2-ylmethyl)ethane-1,2-diamine] | The same interactions can be found |  |  |  |  |  |
| CC(=O)NCCOc1ccc2n1[B-](F)(F)[N+]1=C(N(CCN(Cc3ccccn3)Cc3ccccn3)Cc3ccccn3)C=CC1=C2c1c(C)cc(C)cc1C [ZincBY-4, N-(2-((7-((2-(bis(pyridin-2-ylmethyl)amino)ethyl)(pyridin-2-ylmethyl)amino)-5,5-difluoro-10-mesityl-5H-5λ4,6λ4-dipyrrolo[1,2-c:2′,1′-f][1,3,2]diazaborinin-3-yl)oxy)ethyl)acetamide] | binds readily to the lipid transport protein | two-fold increase in fluorescence intensity over its apo form; also recorded: ca. two-fold | 0.37 | 0.03 | 590 | 575 |
